Earlier results as cited in patent US12251376B2, “Combinations with thiazolidinediones for use in the prevention or treatment of abnormal bone growth” (SERVIZO GALEGO DE SAÚDE (SERGAS), priority 2019, dated 2025).
Several values for one entry are separate records, joined by “and”; a condition that tells them apart may be missing. Equal values may be shown once.

What was measured:
abnormal bone growth = conditions: for preventing recurrence of heterotopic ossification after total hip replacement: state of the art
[1] = not given; remark: listed apart in the source
[2] = not given; remark: listed apart in the source

CC(=O)Oc1ccccc1C(=O)O [aspirin]
preventing recurrence of heterotopic ossification after total hip replacement (abnormal bone growth): some effect

CC(C)Cc1ccc(C(C)C(=O)O)cc1 (centres unmarked) [ibuprofen]
preventing recurrence of heterotopic ossification after total hip replacement (abnormal bone growth): some effect

COc1ccc2c(c1)c(CC(=O)O)c(C)n2C(=O)c1ccc(Cl)cc1 [indomethacin]
reduction of abnormal bone growth (clinical data) (abnormal bone growth; 75 mg retard administration): significantly reduce
preventing recurrence of heterotopic ossification after total hip replacement (abnormal bone growth): some effect
Bioavailability (oral): total

CCc1ccc(CCOc2ccc(CC3SC(=O)NC3=O)cc2)nc1 (centres unmarked) [pioglitazone]
doses shown safe in clinical trials [1]: up to 180 mg/day
Volume of distribution (in vivo): 0.25 L/kg
Bioavailability (oral): > 80% and ~83%
time of maximum plasma dose after oral administration (oral): 2 h
increase of plasma concentration with dose (tested from 2 mg to 60 mg): Linear increase
solubility [2]: highly insoluble
